Measured values taken from the NIST ThermoML archive (doi:10.1016/j.jct.2017.05.001).

Experiment: wn = mass fraction of the nth substance listed
Conditions: Liquid; for mass density: Vibrating tube method; for viscosity: Falling or rolling sphere viscometry

CN(C)CCO [2-(N,N-dimethylamino)ethanol] + O
Conditions	mass density, w1 = 0.1005 [kg/m3]	mass density, w1 = 0.202 [kg/m3]	mass density, w1 = 0.3005 [kg/m3]	mass density, w1 = 0.3995 [kg/m3]	viscosity, w1 = 0.1005 [mPa·s]	viscosity, w1 = 0.202 [mPa·s]	viscosity, w1 = 0.3005 [mPa·s]	viscosity, w1 = 0.3995 [mPa·s]
353.15 K, 60000 kPa	–	–	975.6	967.5	–	–	–	–
353.15 K, 70000 kPa	993.6	986.6	979.3	971.2	–	–	–	–
353.15 K, 80000 kPa	997.4	990.1	983	975.1	0.4999	0.6779	0.9395	1.281
353.15 K, 90000 kPa	1000.9	993.8	986.6	978.7	–	–	–	–
353.15 K, 100000 kPa	1004.6	997.3	990.1	982.4	0.5096	0.6942	0.9726	1.337
353.15 K, 110000 kPa	1008.1	1000.7	993.6	985.9	–	–	–	–
353.15 K, 120000 kPa	1011.7	1004.1	997	989.3	–	–	–	–
353.15 K, 130000 kPa	1014.9	1007.5	1000.3	992.7	–	–	–	–
353.15 K, 140000 kPa	1018.3	1010.8	1003.5	996	–	–	–	–
373.15 K, 100 kPa	950.7	942.4	933.3	923.1	–	–	–	–
373.15 K, 500 kPa	950.9	942.7	933.6	923.4	–	–	–	–
373.15 K, 1000 kPa	951.2	942.9	933.9	923.6	–	–	–	–
373.15 K, 2000 kPa	951.7	943.4	934.4	924.2	–	–	–	–
373.15 K, 5000 kPa	953	944.8	935.9	925.8	0.359	0.4516	0.5788	0.7177
373.15 K, 10000 kPa	955.4	947.2	938.4	928.4	0.3614	0.4543	0.5834	0.7267
373.15 K, 15000 kPa	957.7	949.5	940.8	931.1	0.3638	0.4578	0.5895	0.7398
373.15 K, 20000 kPa	959.9	951.8	943.2	933.6	0.3659	0.4624	0.5971	0.7525
373.15 K, 25000 kPa	–	–	–	–	0.3691	0.4659	0.602	0.7633
